Data as given in PMC7247425, “MRP1-Collateral Sensitizers as a Novel Therapeutic Approach in Resistant Cancer Therapy: An In Vitro and In Vivo Study in Lung Resistant Tumor” (International Journal of Molecular Sciences, 2020).

Legend:
MDCK-MRP1 cells = test: Antiproliferative MTT assay in MDCK-wt and MDCK-MRP1 cells, selectivity ratio; format: cell-based, canine; settings: EC50 of MDCK cells/EC50 of MDCK-MRP1 cells
Experimental: Within the search for novel CS agents acting on MRP1 proteins, the compounds selected among the different series of sigma-2 ligands were investigated for their activity at MRP1, paralleled with their cytotoxicity in the parental Madin–Darby canine kidney (MDCK-wt) cells and in the MDR-derived cells (MDCK-MRP1) for the determination of their SR (EC50 parental cells/EC50 MDR cells). The activity at the MRP1 pump was determined measuring the transport inhibition of the pro-fluorescent probe Calcein-AM, an MRP1 substrate, in the MRP1-overexpressing cell line (MDCK-MRP1) by the in vitro biological assay usually performed to study an MRP1 interaction. […] The SR was measured as the EC50 of the MDCK cells/EC50 of the MDCK-MRP1 cells.
The determination of cell growth was performed using an MTT assay at 24 or 72 h. On day 1, 10,000 cells/well were seeded into 96-well plates in a volume of 100 μL. […] In all the experiments, the various drug solvents (ethanol, DMSO) were added in each control to evaluate a possible solvent cytotoxicity. After the established incubation time with drugs, 10 μL MTT (0.5 mg/mL) was added to each well, and after 3 h incubation at 37°C, the supernatant was removed. The formazan crystals were solubilized using 100 μL of DMSO and the absorbance values at 570 and 630 nm were determined on the microplate reader Victor 3 from PerkinElmer Life Sciences. The absorbance of the untreated cells was considered equal to 100% cell viability; the viability of cells measured in each experimental condition was expressed as a percentage of viable cells in the considered condition vs. the viability of the untreated cells.

A549/DX cells = test: In vivo tumor growth of A549/DX xenografts; design: species or system nu/nu BALB/C mice; settings: for Tumor growth, single agent: A549/DX xenografts in nu/nu BALB/C mice, 750 nmoles i.p. on day 1, 7, 14; for Tumor growth, co-administration with MK571 / Tumor growth, co-administration with cis-Pt: A549/DX xenografts; for Tumor growth, co-administration with MK571: 750 nmoles + 3 mg/kg MK571 i.p.; for Tumor growth, co-administration with cis-Pt: 750 nmoles + 50 mg/kg cis-Pt i.p.
Experimental: In order to translate in vivo the capability of F397, F400, and F421 to act as “sensitizers”, A549/DX cells were implanted in immune-deficient BALB/C mice, and once the tumor reached the volume of 50 mm^3, the mice were randomized and treated […] with the vehicle (saline solution) and/or cis-Pt.
(§1) Here, 1 × 10^6 A549/DX cells were mixed with 100 μl Matrigel implanted in 6-week-old female nu/nu BALB/C mice (Charles River Laboratories Italia, Calco, Italy), housed (5 per cage) under 12 h light/dark cycle, with food and drinking provided ad libitum. Tumor growth was measured daily by caliper, according to the equation (LxW2)/2, where L = tumor length and W = tumor width. When the tumor reached the volume of 50 mm^3, mice (n = 8/group) were randomized and treated as reported in the following groups, treated on day 1, 7, and 14 after randomization: (1) vehicle group (ctrl), treated intraperitoneally (i.p.) with 100 µL saline solution; (2) cis-Pt group, treated i.p. with 50 mg/kg cis-Pt, dissolved in 100 µL water/10% DMSO solution, according to Kopecka et al., 2015 [53]; (3) F397 group, treated i.p. with 750 nmoles of the compound, dissolved in 100 µL water/10% DMSO solution, corresponding to the maximum tolerated dose (not shown and Table 2); (4) F421 group, treated i.p. with 750 nmoles of the compound, dissolved in 100 µL water/10% DMSO solution i.p, corresponding to the maximum tolerated dose (not shown and Table 2); (5) cis-Pt/F397 group, treated i.p. with 50 mg/kg Cis-Pt and 750 nmoles of F397; (6) cis-Pt/F421 group, treated i.p. with 50 mg/kg cis-Pt and 750 nmoles of F421; (7) MK571 group, treated i.p. with 3 mg/kg MK571 dissolved in 100 µL water/10% DMSO solution, according to Jones et al., 1989 [56]; (8) MK571/F397 group, treated i.p. with 3 mg/kg MK571 and 750 nmoles of F397; (9) MK571/F421 group, treated i.p. with 3 mg/kg MK571 and 750 nmoles of F421. Tumor volumes were monitored daily. Animals were euthanized at day 21 after randomization with zolazepam (0.2 mL/kg) and xylazine (16 mg/kg). Lactate dehydrogenase (LDH), aspartate aminotransferase (AST), alanine aminotransferase (ALT), alkaline phosphatase (AP), creatinine, and creatine phosphokinase (CPK) were measured on blood samples collected immediately after euthanasia, using commercially available kits from Beckman Coulter Inc. (Beckman Coulter, Miami, FL, USA).

[1] = Hemato-chemical parameters and tolerability in treated mice; format: in vivo; design: Creatinine: unit not given here; settings: for ALT / AP / AST / CPK / Creatinine / LDH: blood after euthanasia day 21, i.p. treatment day 1, 7, 14, means ± SD, n = 8; for Maximum tolerated dose: i.p., in 100 µL water/10% DMSO, mice (not shown)
Experimental: as §1

MCF7 cell line = test system: MCF7 cell line; design: method as in PMID 24106081; settings: MCF7 cells; read-out: EC50, cytotoxicity in MCF7; cited from earlier work
P-gp = test system: P-gp; design: method as in PMID 24106081; settings: MCF7 cell line; read-out: EC50, P-gp inhibition; cited from earlier work
MCF7/DX = test system: MCF7/DX; design: method as in PMID 24106081; settings: resistant MCF7/DX overexpressing P-gp; read-out: EC50, cytotoxic activity in MCF7/DX; cited from earlier work
in vitro = format: cell-based; settings: human
Text: Nevertheless, the involvement of a sigma-2 receptor-mediated effect was ruled out by the detection of a low density of sigma-2 receptors in A549 cells (data not shown). […].

[2] = Solubility in solvents suitable for in vivo studies; format: physicochemical
Text: Of note, the dose of F397 and F421 effective as an anti-tumor agent in vivo was lower than the dosage effective as an anti-proliferative agent in vitro. One possible reason could be that part of the anti-tumor effect of the compounds was mediated by their activity on the tumor microenvironment, not necessarily only on tumor cells. This aspect cannot be evaluated in the viability assays performed in vitro and could lead to an underestimation of the compounds’ potency. Further, the repeated administration of F397 and F421 followed in vivo instead of the single dosage used in vitro can be an additional explanation. […] This could also be the case of F397 and F421 against A549/DX tumors. […] It is also worth noting that the treatment was not toxic for liver, heart, and kidney compared with the control, as shown from the hemato-chemical parameters of the animals (Table 2).

Structure (SMILES) | SR (selectivity ratio) (MDCK-MRP1 cells) | Tumor growth, single agent (A549/DX cells) | Tumor growth, co-administration with MK571 (A549/DX cells) | Tumor growth, co-administration with cis-Pt (A549/DX cells) | ALT [1] [U/L] | AP [1] [U/L] | AST [1] [U/L] | CPK [1] [U/L] | Creatinine [1] | LDH [1] [U/L] | Maximum tolerated dose [1] [nmol] | EC50 (MCF7 cell line) [µM] | EC50 (P-gp) [µM] | EC50 (MCF7/DX) [µM] | EC50 (in vitro) [µM] | Solubility in solvents suitable for in vivo studies [2]
COc1cc2c(cc1OC)CN(CCCCc1cn(-c3ccc(F)cc3)c3ccccc13)CC2 [F397, 6,7-dimethoxy-2-{4-[1-(4-fluorophenyl)-1H-indol-3-yl]butyl}-1,2,3,4-tetrahydroisoquinoline] | 3.41 | low growth reduction | abated the cytotoxic effect | greatly reduced tumor growth | 37 ± 108 | 112 ± 32 | 81 ± 24 | 324 ± 72 | 0.043 ± 0.009 | 6729 ± 492 | 750 | 17.8 | 0.21 | 21.8 | – | –
COc1cc2c(cc1OC)CN(C(=O)CCC1CCCc3c(OC)cccc31)CC2 (centres unmarked) [F400, 6,7-dimethoxy-2-[3-(5-methoxy-1,2,3,4-tetrahydronaphthalen-1-yl)propionyl]-1,2,3,4 tetrahydroisoquinoline] | 5.91 | – | – | – | – | – | – | – | – | – | – | – | – | – | > 100 | could not be dissolved in solvents suitable for in vivo studies
COc1ccc(CNCCCCc2cn(-c3ccc(F)cc3)c3ccccc23)cc1OC [F421, N-{4-[1-(4-fluorophenyl)-1H-indol-3-yl]butyl}-3,4-dimethoxybenzylamine] | 2.47 | low growth reduction | abated the cytotoxic effect | greatly reduced tumor growth | 33 ± 13 | 143 ± 34 | 82 ± 37 | 321 ± 72 | 0.045 ± 0.011 | 7182 ± 892 | 750 | – | – | – | > 100 | –
